Values of other authors as cited in US20240285636A1, “PHARMACEUTICAL COMPOSITION AND USE OF THE PHARMACEUTICAL COMPOSITION” (LIBBS FARMACÊUTICA LTDA, priority 2021, published 2024).

Details: class IV = low solubility and low permeability

CCCSc1nc(N[C@@H]2C[C@H]2c2ccc(F)c(F)c2)c2nnn([C@@H]3C[C@H](OCCO)[C@@H](O)[C@H]3O)c2n1 (relative stereo) [Ticagrelor, {1S-[1α,2α,3β(1S*,2R*),5β}-3-(7-{[2-(3,4-difluorophenyl)-cyclopropyl]amino}-5-(propylthio)-3H-1,2,3-triazol[4,5-d]pyrimidin-3-yl)-5-(2-hydroxyethoxy)cyclopentane-1,2-diol]
Biopharmaceutical Classification System class: class IV
